Test results: ChEMBL document CHEMBL5584209, “Novel amino- and hydroxy-functionalized 1,2,4-trioxanes and their antimalarial activity against multidrug-resistant Plasmodium yoelii nigeriensis in Swiss mice via intramuscular and oral route” (2024)
Activity calls are given as the source filed them. No cut-off for these calls is given here.

Key:
[1] = system: Plasmodium yoelii nigeriensis; test: Antimalarial activity against multi-drug resistant Plasmodium yoelii nigeriensis infected in swiss mouse model assessed as suppression of parasitemia at 24 mg/kg, po administered for 4 days relative to control; type: functional; conditions: time 4 day
[2] = system: Plasmodium yoelii nigeriensis; test: Antimalarial activity against multi-drug resistant Plasmodium yoelii nigeriensis infected in swiss mouse model assessed as suppression of parasitemia by measuring fold change at 48 mg/kg, po administered for 4 days relative to artemisinin; type: functional; conditions: time 4 day
[3] = system: Plasmodium yoelii nigeriensis; test: Antimalarial activity against multi-drug resistant Plasmodium yoelii nigeriensis infected in swiss mouse model at 96 mg/kg, po administered for 4 days and measured within 6 to 8 days; type: functional, organism-based; conditions: time 6-8 day
[4] = system: Plasmodium yoelii nigeriensis; test: Antimalarial activity against multi-drug resistant Plasmodium yoelii nigeriensis infected in swiss mouse model at 48 mg/kg, po administered for 4 days and measured within 6 to 8 days; type: functional, organism-based; conditions: time 6-8 day
[5] = system: Plasmodium yoelii nigeriensis; test: Antimalarial activity against multi-drug resistant Plasmodium yoelii nigeriensis infected in swiss mouse model assessed as suppression of parasitemia at 96 mg/kg, po administered for 4 days relative to control; type: functional; conditions: time 4 day
[6] = system: Plasmodium yoelii nigeriensis; test: Antimalarial activity against multi-drug resistant Plasmodium yoelii nigeriensis infected in swiss mouse model assessed as suppression of parasitemia at 48 mg/kg, po administered for 4 days relative to control; type: functional; conditions: time 4 day
[7] = system: Plasmodium yoelii nigeriensis; test: Antimalarial activity against multi-drug resistant Plasmodium yoelii nigeriensis infected in swiss mouse model assessed as suppression of parasitemia at 96 mg/kg, IM administered for 4 days relative to control; type: functional; conditions: time 4 day
[8] = system: Plasmodium yoelii nigeriensis; test: Antimalarial activity against multi-drug resistant Plasmodium yoelii nigeriensis infected in swiss mouse model assessed as animal survival at 96 mg/kg, po administered for 4 days and measured after 28 days; type: functional; conditions: time 28 day
[9] = system: Plasmodium yoelii nigeriensis; test: Antimalarial activity against multi-drug resistant Plasmodium yoelii nigeriensis infected in swiss mouse model assessed as animal survival at 96 mg/kg, IM administered for 4 days and measured after 28 days; type: functional; conditions: time 28 day
[10] = system: Plasmodium yoelii nigeriensis; test: Antimalarial activity against multi-drug resistant Plasmodium yoelii nigeriensis infected in swiss mouse model at 48 mg/kg, IM administered for 4 days and measured within 6 to 8 days; type: functional, organism-based; conditions: time 6-8 day
[11] = system: Plasmodium yoelii nigeriensis; test: Antimalarial activity against multi-drug resistant Plasmodium yoelii nigeriensis infected in swiss mouse model assessed as suppression of parasitemia at 48 mg/kg, IM administered for 4 days relative to control; type: functional; conditions: time 4 day
[12] = system: Plasmodium yoelii nigeriensis; test: Antimalarial activity against multi-drug resistant Plasmodium yoelii nigeriensis infected in swiss mouse model assessed as animal survival at 48 mg/kg, IM administered for 4 days and measured after 28 days; type: functional; conditions: time 28 day
[13] = system: Plasmodium yoelii nigeriensis; test: Antimalarial activity against multi-drug resistant Plasmodium yoelii nigeriensis infected in swiss mouse model at 96 mg/kg, IM administered for 4 days and measured within 6 to 8 days; type: functional, organism-based; conditions: time 6-8 day
[14] = system: Plasmodium yoelii nigeriensis; test: Antimalarial activity against multi-drug resistant Plasmodium yoelii nigeriensis infected in swiss mouse model assessed as suppression of parasitemia at 24 mg/kg, IM administered for 4 days relative to control; type: functional; conditions: time 4 day

## C=C(c1ccc(OC(C)(C)CNc2ccccc2)cc1)C1COC2(OO1)C1CC3CC(C1)CC2C3 (stereo not drawn)
[1]
  Activity: 100%
[2]
  fold change (FC): 2
[3]
  Activity: Active
[4]
  Activity: Active
[5]
  Activity: 100%
[6]
  Activity: 100%

## C=C(c1ccc(OC(C)(C)CNc2ccc(Br)cc2)cc1)C1COC2(CCCCC2)OO1 (stereo not drawn)
[7]
  Activity: 100%
[3]
  Activity: Active
[5]
  Activity: 100%
[8]
  Survival: >28 days

## C=C(c1ccc(OC(C)(C)CO)cc1)C1COC2(CCC(Nc3ccc(Br)cc3)CC2)OO1 (stereo not drawn)
[9]
  Survival: >28 days
[10]
  Activity: Active
[11]
  Activity: 100%
[7]
  Activity: 100%
[3]
  Activity: inactive
[12]
  Survival: >28 days
[5]
  Activity: 100%
[13]
  Activity: Active

## C=C(c1ccc(OC(C)(C)CNc2ccc(C(F)(F)F)cc2)cc1)C1COC2(CCCC2)OO1 (stereo not drawn)
[7]
  Activity: 65%
[3]
  Activity: Active
[5]
  Activity: 100%
[13]
  Activity: inactive
[6]
  Activity: 100%
[8]
  Survival: >28 days

## C=C(c1ccc(OC(C)(C)CO)cc1)C1COC2(OO1)C1CC3CC(C1)CC2C3 (stereo not drawn)
[10]
  Activity: Active
[11]
  Activity: 100%
[7]
  Activity: 100%
[3]
  Activity: Active
[5]
  Activity: 100%
[13]
  Activity: Active
[6]
  Activity: 100%

## C=C(c1ccc(OC(C)(C)CO)cc1)C1COC2(CCCC2)OO1 (stereo not drawn)
[7]
  Activity: 98%
[3]
  Activity: inactive
[5]
  Activity: 53%

## C=C(c1ccc(OC(C)(C)CO)cc1)C1COC2(CCC(=O)CC2)OO1 (stereo not drawn)
[7]
  Activity: 53%
[3]
  Activity: inactive
[5]
  Activity: 60%
[13]
  Activity: inactive

## C=C(c1ccc(OC(C)(C)CNc2ccc(C)cc2)cc1)C1COC2(CCCCC2)OO1 (stereo not drawn)
[7]
  Activity: 99%
[5]
  Activity: 100%

## C=C(c1ccc(OC(C)(C)CNc2cc(Cl)cc(Cl)c2)cc1)C1COC2(CCCC2)OO1 (stereo not drawn)
[3]
  Activity: Active
[5]
  Activity: 100%
[6]
  Activity: 100%
[8]
  Survival: >28 days

## C[C@@H]1CC[C@H]2[C@@H](C)C(=O)O[C@@H]3O[C@@]4(C)CC[C@@H]1[C@]32OO4 [ARTEMISININ]
[10]
  Activity: Active
[11]
  Activity: 100%
[3]
  Activity: inactive
[14]
  Activity: 100%
[5]
  Activity: 100%

## C=C(c1ccc(OC(C)(C)CO)cc1)C1COC2(CCCCC2)OO1 (stereo not drawn)
[7]
  Activity: 100%
[3]
  Activity: inactive
[5]
  Activity: 68%

## C=C(c1ccc(OC(C)(C)CNc2ccc(F)cc2)cc1)C1COC2(OO1)C1CC3CC(C1)CC2C3 (stereo not drawn)
[1]
  Activity: 100%
[2]
  fold change (FC): 2
[3]
  Activity: Active
[4]
  Activity: Active
[5]
  Activity: 100%
[6]
  Activity: 100%
